Assay results published in ChEMBL document CHEMBL1137142, “Structure-activity relationships of a novel series of melanin-concentrating hormone (MCH) receptor antagonists” (Bioorg Med Chem Lett, 2004).

Experiments:
[1] = molecular target: T1, Melanin-concentrating hormone receptor 1 (Homo sapiens, UniProt Q99705); test: Inhibitory activity against Melanin-concentrating hormone receptor 1 at 1 uM
[2] = molecular target: T2, Alpha-1A adrenergic receptor (Homo sapiens) (UniProt P35348); test: Inhibitory activity against human adrenergic alpha-1A receptor at 10 uM
T2 sequence (whole entry): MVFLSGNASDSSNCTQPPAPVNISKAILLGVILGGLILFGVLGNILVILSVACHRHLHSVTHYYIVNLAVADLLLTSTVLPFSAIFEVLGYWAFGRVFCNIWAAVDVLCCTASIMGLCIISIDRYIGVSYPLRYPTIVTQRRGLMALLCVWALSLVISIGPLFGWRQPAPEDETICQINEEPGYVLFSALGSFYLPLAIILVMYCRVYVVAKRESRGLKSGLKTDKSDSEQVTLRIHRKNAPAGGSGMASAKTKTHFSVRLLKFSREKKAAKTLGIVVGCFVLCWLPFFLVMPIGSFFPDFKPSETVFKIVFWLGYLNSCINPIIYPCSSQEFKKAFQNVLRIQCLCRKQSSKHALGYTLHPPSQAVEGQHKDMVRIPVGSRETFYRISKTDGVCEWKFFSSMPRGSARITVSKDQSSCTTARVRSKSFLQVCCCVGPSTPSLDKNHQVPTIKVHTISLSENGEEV

[3] = molecular target: T3, 5-hydroxytryptamine receptor 2C (Homo sapiens, UniProt P28335); test: Inhibitory activity against human 5-HT2C receptor
T3 sequence (P28335 whole entry): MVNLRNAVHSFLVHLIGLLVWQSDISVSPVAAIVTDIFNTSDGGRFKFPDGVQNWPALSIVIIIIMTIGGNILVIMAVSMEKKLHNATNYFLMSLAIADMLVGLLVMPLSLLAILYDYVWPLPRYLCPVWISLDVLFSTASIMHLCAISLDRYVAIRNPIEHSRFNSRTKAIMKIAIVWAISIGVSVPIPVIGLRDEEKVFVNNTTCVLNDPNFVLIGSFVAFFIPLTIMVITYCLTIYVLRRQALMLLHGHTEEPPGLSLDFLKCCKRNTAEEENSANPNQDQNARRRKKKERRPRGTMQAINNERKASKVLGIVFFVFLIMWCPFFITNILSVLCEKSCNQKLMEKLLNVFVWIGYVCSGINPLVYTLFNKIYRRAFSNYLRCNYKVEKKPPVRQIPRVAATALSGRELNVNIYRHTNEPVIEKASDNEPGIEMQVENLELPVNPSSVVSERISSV

[4] = molecular target: T4, 5-hydroxytryptamine receptor 2A (Homo sapiens, UniProt P28223); test: Inhibitory activity against human 5-HT2A receptor
T4 sequence (P28223 whole entry): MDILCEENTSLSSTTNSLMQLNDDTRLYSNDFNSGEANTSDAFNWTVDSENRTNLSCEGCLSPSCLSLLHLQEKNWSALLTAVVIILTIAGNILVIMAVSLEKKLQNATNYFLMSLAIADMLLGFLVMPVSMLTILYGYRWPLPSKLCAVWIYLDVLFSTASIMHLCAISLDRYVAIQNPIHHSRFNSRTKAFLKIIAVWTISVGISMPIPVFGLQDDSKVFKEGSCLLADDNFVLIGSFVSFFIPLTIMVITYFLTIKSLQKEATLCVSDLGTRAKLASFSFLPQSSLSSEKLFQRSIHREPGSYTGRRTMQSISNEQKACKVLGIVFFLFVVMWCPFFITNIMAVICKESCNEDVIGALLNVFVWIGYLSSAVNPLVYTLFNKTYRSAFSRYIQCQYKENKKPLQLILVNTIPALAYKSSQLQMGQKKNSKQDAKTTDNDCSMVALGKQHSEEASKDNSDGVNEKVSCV

[5] = molecular target: T5, 5-hydroxytryptamine receptor 2B (Homo sapiens, UniProt P41595); test: Inhibitory activity against human 5-HT2B receptor
T5 sequence (P41595 whole entry): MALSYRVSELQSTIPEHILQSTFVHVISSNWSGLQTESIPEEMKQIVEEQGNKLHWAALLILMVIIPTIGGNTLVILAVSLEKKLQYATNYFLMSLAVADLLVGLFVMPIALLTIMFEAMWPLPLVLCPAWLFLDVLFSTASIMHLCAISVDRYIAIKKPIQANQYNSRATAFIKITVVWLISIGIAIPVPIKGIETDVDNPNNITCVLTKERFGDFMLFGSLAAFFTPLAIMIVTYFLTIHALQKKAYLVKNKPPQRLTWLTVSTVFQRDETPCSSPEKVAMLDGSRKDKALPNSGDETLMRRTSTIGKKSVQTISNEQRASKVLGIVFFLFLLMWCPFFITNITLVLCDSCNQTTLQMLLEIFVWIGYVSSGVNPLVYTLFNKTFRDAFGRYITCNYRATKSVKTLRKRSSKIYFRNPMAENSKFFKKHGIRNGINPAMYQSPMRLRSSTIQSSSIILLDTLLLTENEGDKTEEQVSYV

[6] = molecular target: D(2) dopamine receptor (Homo sapiens) (UniProt P14416); test: Inhibitory activity against human D2 receptor at 10 uM
Sequence of D(2) dopamine receptor (Homo sapiens) (P14416 whole entry): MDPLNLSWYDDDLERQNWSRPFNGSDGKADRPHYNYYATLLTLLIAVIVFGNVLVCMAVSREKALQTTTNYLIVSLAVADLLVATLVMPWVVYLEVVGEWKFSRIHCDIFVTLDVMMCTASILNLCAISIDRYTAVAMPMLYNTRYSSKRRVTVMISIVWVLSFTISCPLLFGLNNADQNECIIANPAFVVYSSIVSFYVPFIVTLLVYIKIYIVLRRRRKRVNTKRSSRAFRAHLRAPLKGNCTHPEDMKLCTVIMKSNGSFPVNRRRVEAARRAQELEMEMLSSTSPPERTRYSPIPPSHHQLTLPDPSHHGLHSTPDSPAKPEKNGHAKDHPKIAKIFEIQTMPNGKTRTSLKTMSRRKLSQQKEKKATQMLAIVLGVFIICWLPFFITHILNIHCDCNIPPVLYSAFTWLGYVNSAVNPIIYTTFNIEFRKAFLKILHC

[7] = (§1) Inhibitory activity against Melanin-concentrating hormone receptor 1; parameters: species or system Homo sapiens
[8] = molecular target: T6, 5-hydroxytryptamine receptor 2C (Homo sapiens) (UniProt P28335); test: Inhibitory activity against human 5-HT2C receptor at 1 uM concentration
T6 sequence (whole entry): T3 sequence (P28335 whole entry)

[9] = molecular target: T4, 5-hydroxytryptamine receptor 2A; test: Inhibitory activity against human 5-HT2A receptor at 1 uM concentration
[10] = molecular target: T2, Alpha-1A adrenergic receptor (Homo sapiens); test: Inhibitory activity against human adrenergic alpha-1A receptor at 1 uM concentration
[11] = molecular target: D(2) dopamine receptor (Homo sapiens) (UniProt P14416); test: Inhibitory activity against human D2 receptor at 1 uM concentration
Homo sapiens = species on record: Homo sapiens; test: Selectivity ratio for MCH-1R versus 5-HT2B receptor
[12] = molecular target: T1, Melanin-concentrating hormone receptor 1; test: as §1; conditions: concentration not given here
[13] = molecular target: T2, Alpha-1A adrenergic receptor (Homo sapiens); test: Inhibitory activity against human adrenergic alpha-1A receptor at 10 uM concentration
[14] = molecular target: D(2) dopamine receptor (Homo sapiens) (UniProt P14416); test: Inhibitory activity against human D2 receptor at 10 uM concentration
[15] = molecular target: T1, Melanin-concentrating hormone receptor 1; test: Tested for MCH-1 induced [Ca2+] release from CHO cells transfected with human MCH-1R; assay type: cell-based
[16] = molecular target: T5, 5-hydroxytryptamine receptor 2B; test: Inhibitory activity against human 5-HT2B receptor at 1 uM concentration

T1 sequence (Q99705 whole entry): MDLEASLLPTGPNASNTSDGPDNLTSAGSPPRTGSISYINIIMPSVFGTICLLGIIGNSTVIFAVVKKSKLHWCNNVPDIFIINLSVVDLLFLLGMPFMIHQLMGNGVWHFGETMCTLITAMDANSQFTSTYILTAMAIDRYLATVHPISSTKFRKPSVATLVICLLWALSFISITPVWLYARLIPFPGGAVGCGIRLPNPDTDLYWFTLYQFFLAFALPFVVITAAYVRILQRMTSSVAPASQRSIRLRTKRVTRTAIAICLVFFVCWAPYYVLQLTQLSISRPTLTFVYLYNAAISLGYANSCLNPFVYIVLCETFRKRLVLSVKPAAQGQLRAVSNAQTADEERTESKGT

With `Cc1cc(N2CCN(C)CC2)nc2ccc(NC(=O)CSCc3ccc(Cl)cc3)cc12` the inhibition [1] was 38%.
With `Cc1cc(N2CCN(C)CC2)nc2ccc(NC(=O)COc3ccc(Cl)cc3)cc12` the inhibition [2] was 84%, the IC50 [3] was 970 nM and the IC50 [4] was 2180 nM. For the same compound, the IC50 [5] was 349 nM, the inhibition [6] was 35% and the IC50 [7] was 55 nM.
In the case of `Cc1cc(NC2CCCC2)nc2ccc(NC(=O)COc3ccc(C(F)(F)F)cc3)cc12`, the IC50 [7] is reported as 38 nM.
In the case of `Cc1cc(NC(C)C)nc2ccc(NC(=O)COc3ccc(C(F)(F)F)cc3)cc12`, the inhibition [8] is reported as 18%, the inhibition [9] is reported as 18% and the inhibition [10] is reported as 24%. The inhibition [11] was 2%, the IC50 [5] was 400 nM and the Ratio (Homo sapiens) was 36. It also gave an IC50 [7] of 11 nM.
`Cc1cc(N2CCCCC2)nc2ccc(NC(=O)COc3ccc(C(F)(F)F)cc3)cc12` gave an IC50 [7] of 226 nM.
With `COc1cccc(OCC(=O)Nc2ccc3nc(N4CCN(C)CC4)cc(C)c3c2)c1` the inhibition [1] was 9%.
`COc1ccccc1OCC(=O)Nc1ccc2nc(N3CCN(C)CC3)cc(C)c2c1` gave an inhibition [12] of 0%.
Compound `Cc1cc(N2CCN(C)CC2)nc2ccc(NC(=O)COc3ccc(C#N)cc3)cc12` has an IC50 [7] of 370 nM.
`Cc1cc(N(C)CCN(C)C)nc2ccc(NC(=O)COc3ccc(C(F)(F)F)cc3)cc12` showed an IC50 [7] of 22 nM.
For `Cc1cc(N2CCN(C)CC2)nc2ccc(NC(=O)COc3ccccc3Cl)cc12`, the IC50 [7] was 470 nM.
`Cc1ccccc1OCC(=O)Nc1ccc2nc(N3CCN(C)CC3)cc(C)c2c1` showed an IC50 [7] of 1050 nM.
With `Cc1cc(N2CCN(C)CC2)nc2ccc(NC(=O)COc3ccc(C(F)(F)F)cc3)cc12` the inhibition [8] was 39%, the inhibition [9] was 27% and the inhibition [13] was 85%. It also gave an inhibition [14] of 41%, an IC50 [5] of 442 nM and an IC50 [15] of 63 nM. The Ratio (Homo sapiens) was 32 and the IC50 [7] was 14 nM.
`COc1ccc(OCC(=O)Nc2ccc3nc(N4CCN(C)CC4)cc(C)c3c2)cc1` showed an IC50 [7] of 152 nM.
With `Cc1cc(N2CCCC2)nc2ccc(NC(=O)COc3ccc(C(F)(F)F)cc3)cc12` the inhibition [8] was 7%, the inhibition [9] was 11% and the inhibition [10] was 10%. The inhibition [11] was 7%, the IC50 [15] was 10 nM and the Ratio (Homo sapiens) was > 200. The IC50 [7] was 15 nM.
`Cc1ccc(OCC(=O)Nc2ccc3nc(N4CCN(C)CC4)cc(C)c3c2)cc1` showed an IC50 [7] of 80 nM.
In the case of `Cc1cc(N2CCN(C)CC2)nc2ccc(NC(=O)COc3cccc(Cl)c3)cc12`, the inhibition [12] is reported as 19%.
Compound `Cc1cc(N(C)Cc2ccccc2)nc2ccc(NC(=O)COc3ccc(C(F)(F)F)cc3)cc12` has an inhibition [1] of 40%.
With `Cc1cc(N(C)C)nc2ccc(NC(=O)COc3ccc(C(F)(F)F)cc3)cc12` the IC50 [7] was 174 nM.
For `Cc1cc(N2CCN(C)CC2)nc2ccc(NC(=O)COc3ccc(OC(F)(F)F)cc3)cc12`, the IC50 [7] was 36 nM.
Work on `Cc1cc(N2CCN(C)CC2)nc2ccc(NC(=O)COc3ccc(F)cc3)cc12` yielded an IC50 [7] of 1680 nM.
With `Cc1cc(N2CCN(C)CC2)nc2ccc(NC(=O)COCc3ccc(Cl)cc3)cc12` the inhibition [1] was 19%.
With `Cc1cc(N2CCN(C)CC2)nc2ccc(NC(=O)CCc3ccc(Cl)cc3)cc12` the IC50 [7] was 300 nM.
`Cc1cc(N2CCOCC2)nc2ccc(NC(=O)COc3ccc(C(F)(F)F)cc3)cc12` gave an inhibition [8] of 27%, an inhibition [9] of 27% and an inhibition [16] of 19%. It also gave an inhibition [10] of 5%, an inhibition [11] of 43% and an IC50 [15] of 124 nM. For the same compound, the Ratio (Homo sapiens) was > 11 and the IC50 [7] was 91 nM.
With `Cc1cc(N2CCN(C)CC2)nc2ccc(NC(=O)COc3ccccc3)cc12` the inhibition [1] was 2%.
